Experimental findings from patent publication EP3301100A1, “ORGANOMETALLIC FLUCONAZOLE DERIVATES AND THEIR USE AS ANTIMYCOTICS” (Universität Zürich, priority 2016, dated 2018) are described below.

Converted amounts (≈) assume the structure as drawn.

Data set [1] deals with human retinal pigment epithelial cell (RPE-1-hTert). Put plainly: cells. As to the method: In both topic and systemic applications, antimycotic drugs are getting in contact with patient tissues. It is therefore of utmost importance that new drug candidates display a lack of host toxicity. Thus, the antiproliferative effect of the new complexes were investigated in vitro on human retinal pigment epithelial cell (RPE-1-hTert). […] Table 1: Host cytotoxicity
Human fibroblast (MRC-5) and retinal pigment epithelial (RPE) cell lines were cultured in F-10 medium supplemented with 10% fetal calf serum (FCS, Gibco), 100 U/mL penicillin, 100 µg/mL streptomycin or DMEM medium (Gibco) supplemented with 10% fetal calf serum (FCS, Gibco), 100 U/mL penicillin, 100 µg/mL streptomycin, respectively, at 37 °C and 6% CO2.
Cytotoxicity studies of the compounds of the present invention were performed by a fluorometric cell viability assay using resazurin (Promocell GmbH). Briefly, one day before treatment the cells were plated in triplicate in 96-well plates at a density of 4 × 10^3 cells per well in 100 µL. Upon treating the cells with increasing concentrations of the compounds of the present invention, the cells were incubated for 48 h at 37 °C/6% CO2, the medium was removed, and 100 µL of complete medium containing resazurin (0.2 mg mL^-1 final concentration) was added. After 4 h of incubation at 37 °C/6% CO2, the fluorescence of the highly red fluorescent resorufin product was quantified at 590 nm emission with 540 nm excitation wavelength using a SpectraMax M5 Microplate Reader. The results were expressed as mean ± standard deviation error of independent experiments.

In another data set the test system is Candida albicans. Put plainly: Antifungal activity on pathological isolated strain (EUCAST susceptibility testing, MIC50). The class given is cell-based. The conditions noted are these: C. albicans, ≥ 50% inhibition of growth after 48 h incubation. The method, then: (§1) In vivo studies were performed on pathological isolated strains. […] The compounds of the present invention were tested against Candida albicans, its azole-resistant type and three different pathologic fungi, namely Penicillumpaneum, Aspergillus glaucus and Trichosporonasahi (see table 2). […] Table 2: In vivo antifungal activity
(§2) Candida strains were tested for their susceptibility to the azole (7 dilution series, ranging from 1 mM to 0.01 mM) following the European Committee for Antimicrobial Susceptibility Testing protocol (EUCAST Definitive Document EDef 7.2 Revision, 2012). Briefly, cells were grown in RPMI1640 medium supplied with 2.0% glucose, counted and inoculated at a concentration of 1-5 x 10^5 CFU/ml.

A further data set relates to A. glaucus. The data set is described as above. The conditions noted are these: ≥ 50% inhibition of growth after 48 h incubation. Type of data set: cell-based, Aspergillus glaucus. As to the method:
as §1, §2

The next data set deals with P. paneum. The description is as above. Type of data set: cell-based, Penicillumpaneum. The conditions noted are these: for MIC50: P. paneum, ≥ 50% inhibition of growth after 48 h incubation. As to the method:
as §1, §2

For the next data set, the system named is T. asahi. Described as above. Type of data set: cell-based, Trichosporonasahi. As to conditions: ≥ 50% inhibition of growth after 48 h incubation. As to the method:
as §1, §2

Data set [2] deals with C. albicans (res. Strains). Described as above. The class given is cell-based, Candida albicans. The conditions noted are these: for MIC50: C. albicans (res. Strains), azole-resistant, ≥ 50% inhibition of growth after 48 h incubation. The method, then: as §1, §2
Another data set has as its system Candida Robusta. As to conditions: wild type C. robusta, agar, 24 h at 30 °C; result in words, comparison with the parent drug.

Method for Candida Robusta: To evaluate the antifungal acitivty of the new drug candidates, a well-plate based assay was used. The first investigation of antimycotic activity has been performed on a well-known model, namely Candida Robusta. Wild type colony of C. robusta was cultured and diluted to start the growing phase just before treatment and then seeded at different concentrations on the agar terrain poured with different concentrations of the target complexes and incubated for 24 h at 30 °C.
Wild type C. robusta was freshly inoculated and cultured in autoclaved YPD buffer containing 2% bacto peptone, 1% bacto yeast extract and 2% glucose anhydrous at 30°C (Kuehner shaker Labtherm, Kuehner Switzerland).
Briefly, one day before treatment, an aliquot of wild type C. robustawas inoculated in 5 mL YPD buffer solution (see above) and incubated overnight at 30°C. The fungal proliferation was then quantified at 600 nm in a Cary60 UV/Vis (Agilent Technologies). The SC was then seeded at different concentrations of the yeast (representing OD of 0.2, 0.02, 0.002 and 0.0002 for different colony growth rate) in 24-wells plates containing 2 mL growing terrain. […] The fungal colony formation was monitored with Alpha Digitec camera (Bucher Biotec) and the colony density was calculated with Alphalmager software (v1.3.0.7) with multiplex band analysis mode / single tool. […]

In data set [1] (RPE-1-hTert cells, 48 h incubation, resazurin, mean ± standard deviation error), `Cl.OC(CNC[c-]1cccc1)(Cn1cncn1)c1ccc(F)cc1F.[Fe+2].c1cc[cH-]c1` (stereo not drawn) [H, syn/anti-N-(ferrocenylmethyl)-2-(2,4-difluorophenyl)-2-hydroxy-3-(1H-1,2,4-triazol-1-yl)propan-1-aminium chloride] registered a half-maximal inhibitory concentration (IC50) of more than 100 µM.
On to `OC(Cn1cncn1)(Cn1cncn1)c1ccc(F)cc1F` [Fluconazole], for which, in data set [1], the cell viability entry is reported as “did not affect cell viability”. Also, in data set [1] (Homo sapiens, Epithelial cell, 48 h), the IC50 is more than 100 µM. Also, the MIC50 was 0.8 µM (≈ 0.245 µg/mL) in the data set with Candida albicans (Candida albicans); 0.8 µM (≈ 0.245 µg/mL) in the data set with A. glaucus (Aspergillus glaucus); more than 209 µM against P. paneum; 1.6 µM (≈ 0.49 µg/mL) in the data set on T. asahi; more than 209 µM in data set [2] (Candida albicans).
As to `C[NH+](C[c-]1cccc1)CC(O)(Cn1cncn1)c1ccc(F)cc1F.[Cl-].[Fe+2].c1cc[cH-]c1` (stereo not drawn) [Methyl, syn/anti-N-(ferrocenylmethyl)-2-(2,4-difluorophenyl)-2-hydroxy-N-methyl-3-(1H-1,2,4-triazol-1-yl)propan-1-aminium chloride], the antifungal activity entry with Candida Robusta is recorded as “highest antimycotic activity”. Besides, the MIC50 in the data set with Candida albicans is reported as 0.07 µM; against A. glaucus it was more than 1 µM; with P. paneum it was 0.25 µM; with T. asahi it was 0.13 µM; in data set [2] it was 0.7 µM. Further, the “antimycotic potency over the parent drug” value with P. paneum (e.g. P.paneum, factor versus fluconazole) was not above 800 fold. Moreover, in data set [2] (C. albicans resistant strain, result in words), the azole resistance result is “able to overcome azole resistance”.

By IC50 is commonly meant the concentration at which inhibition is half-maximal. A higher IC50 goes with weaker potency in that assay. Broadly, the MIC50 is the lowest concentration that inhibits either 50% of growth or 50% of the strains tested, depending on the study. Read a high MIC50 as weaker potency.
